Results as given in ChEMBL document CHEMBL6096648, “Discovery of phenazine derivatives as a new class of non-classical ferroptosis inhibitors and efficacy evaluation on a mouse model of liver injury” (Eur J Med Chem, 2025).
Each block holds one molecule with its values, some of them ahead of it. Activity calls are given as the source filed them. The rule behind the calls is not given here.

Columns and labels:
ES-2 [1] = assay: Inhibition of erastin-induced ferroptosis in human ES2 cells assessed as increase in cell viability incubated for 48 hrs in presence of erastin by MTT assay; type: functional, cell-based; conditions: ES-2, 48 h
LX-2 = assay: Inhibition of erastin-induced ferroptosis in human LX2 cells assessed as increase in cell viability incubated for 48 hrs in presence of erastin by MTT assay; type: functional, cell-based; conditions: LX-2, 48 h
ES2 = assay: Effect on ERK1/2 phoshorylation in erastin-stimulated human ES2 cells at 0.01 to 1 uM incubated for 8 to 10 hrs by western blot analysis; type: cell-based; conditions: dose 0.01-1 µM, time 8-10 hrs
ES-2 [2] = assay: Inhibition of ferritinophagy in erastin-stimulated human ES2 cells assessed as increase in ferritin protein expression incubated for 8 to 10 hrs by western blot analysis; type: functional, cell-based; conditions: dose 0.01-1 µM, time 8-10 hrs
ES-2 [3] = assay: Inhibition of erastin-induced ferroptosis in human ES2 cells assessed as ERK protein expression at 0.01 to 1 uM incubated for 8 to 10 hrs by western blot analysis; type: functional, cell-based; conditions: dose 0.01-1 µM, time 8-10 hrs
[4] = Potency index, ratio of ferrostatin-1 EC50 to test compound EC50 for inhibition of erastin-induced ferroptosis in human ES2 cells; type: functional, ES-2
THP-1 = assay: Inhibition of LPS/nigericin-stimulated pyroptosis in PMA-differentiated human THP-1 cells assessed as cell viability at 10 uM treated with LPS for 4 hrs followed by incubation with compound and nigericin for 30 mins by MTT assay; type: functional, cell-based
ES-2 [5] = assay: Inhibition of erastin-induced ferroptosis in human ES2 cells assessed as inhibition of lipid peroxidation by measuring decrease in MDA content at 0.01 uM measured after 8 to 10 hrs; type: functional, cell-based; conditions: time 8-10 hrs
Mus musculus [6] = assay: Protection against APAP-induced acute liver injury C57BL/6 mouse model assessed as decrease in serum ALT content at 3 mg/kg, ip administered 2 hrs prior to APAP injection and measured after 6 hrs; type: functional, organism-based; conditions: time 8.0 hrs
ES-2 [7] = assay: Inhibition of ferritinophagy in erastin-stimulated human ES2 cells assessed as increase in FTL gene expression at 0.01 to 1 uM by qRT-PCR analysis; type: functional, cell-based; conditions: dose 0.01-1 µM
ES-2 [8] = assay: Inhibition of erastin-induced ferroptosis in human ES2 cells assessed as xCT protein expression at 0.01 to 1 uM incubated for 8 to 10 hrs by western blot analysis; type: functional, cell-based; conditions: dose 0.01-1 µM, time 8-10 hrs
Mus musculus [9] = assay: Protection against APAP-induced acute liver injury C57BL/6 mouse model assessed as decrease in liver MDA content at 3 mg/kg, ip administered 2 hrs prior to APAP injection and measured after 6 hrs; type: functional, organism-based; conditions: time 8.0 hrs
ES-2 [10] = assay: Inhibition of erastin-induced ferroptosis in human ES2 cells assessed as FPN protein expression at 0.01 to 1 uM incubated for 8 to 10 hrs by western blot analysis; type: functional, cell-based; conditions: dose 0.01-1 µM, time 8-10 hrs
ES-2 [11] = assay: Inhibition of erastin-induced ferroptosis in human ES2 cells assessed as FACL4 protein expression at 0.01 to 1 uM incubated for 8 to 10 hrs by western blot analysis; type: functional, cell-based; conditions: dose 0.01-1 µM, time 8-10 hrs
ES-2 [12] = assay: Inhibition of erastin-induced ferroptosis in human ES2 cells assessed as increase in intracellular GSH content at 0.01 to 1 uM measured after 8 to 10 hrs; type: functional, cell-based; conditions: dose 0.01-1 µM, time 8-10 hrs
ES-2 [13] = assay: Inhibition of erastin-induced ferroptosis in human ES2 cells assessed as GPX4 protein expression at 0.01 to 1 uM incubated for 8 to 10 hrs by western blot analysis; type: functional, cell-based; conditions: dose 0.01-1 µM, time 8-10 hrs
[14] = Metal chelating activity assessed as compound-Fe2+ complex formation at 10 uM incubated for 5 mins by ferrozine-based colorimetric assay
Mus musculus [15] = assay: Protection against APAP-induced acute liver injury C57BL/6 mouse model assessed as decrease in serum AST content at 3 mg/kg, ip administered 2 hrs prior to APAP injection and measured after 6 hrs; type: functional, organism-based; conditions: time 8.0 hrs
ES-2 [16] = assay: Inhibition of erastin-induced ferroptosis in human ES2 cells assessed as TFR1 protein expression at 0.01 to 1 uM incubated for 8 to 10 hrs by western blot analysis; type: functional, cell-based; conditions: dose 0.01-1 µM, time 8-10 hrs
Mus musculus [17] = assay: Protection against APAP-induced acute liver injury C57BL/6 mouse model assessed as decrease in liver tissue damage at 3 mg/kg, ip administered 2 hrs prior to APAP injection and measured after 6 hrs by Hematoxylin-Eosin staining based analysis; type: functional, organism-based; conditions: time 8.0 hrs
ES-2 [18] = assay: Inhibition of ferritinophagy in erastin-stimulated human ES2 cells assessed as increase in NCOA4 protein expression incubated for 8 to 10 hrs by western blot analysis; type: functional, cell-based; conditions: dose 0.01-1 µM, time 8-10 hrs
HT-29 = assay: Inhibition of TNF-alpha/Smac-mimetic/Z-VAD-FMK-induced necrosis in human HT-29 cells assessed as cell viability at 10 uM incubated for 24 hrs in presence of TNF-alpha/Smac-mimetic/Z-VAD-FMK by MTT assay; type: functional, cell-based
ES-2 [19] = assay: Inhibition of staurosporine-induced apoptosis in human ES2 cells assessed as cell viability at 10 uM incubated for 24 hrs in presence of staurosporine by MTT assay; type: functional, cell-based
ES-2 [20] = assay: Inhibition of erastin-induced ferroptosis in human ES2 cells assessed as reduction in cytosolic ROS accumulation at 0.01 to 1 uM measured after 8 to 10 hrs by DCFH-DA staining based fluorescence analysis; type: functional, cell-based; conditions: dose 0.01-1 µM, time 8-10 hrs
ES-2 [21] = assay: Inhibition of ferritinophagy in erastin-stimulated human ES2 cells assessed as increase in FTH1 gene expression at 0.01 to 1 uM by qRT-PCR analysis; type: functional, cell-based; conditions: dose 0.01-1 µM
[22] = Antioxidant activity assessed as DPPH radical scavenging activity at 1 to 50 uM incubated for 10 mins by DPPH assay; type: functional; conditions: dose 1-50 µM
ES-2 [23] = assay: Inhibition of erastin-induced ferroptosis in human ES2 cells assessed as DMT1 protein expression at 0.01 to 1 uM incubated for 8 to 10 hrs by western blot analysis; type: functional, cell-based; conditions: dose 0.01-1 µM, time 8-10 hrs
ES-2 [24] = assay: Inhibition of ferritinophagy in erastin-stimulated human ES2 cells assessed as increase in NCOA4 gene expression at 0.01 to 1 uM by qRT-PCR analysis; type: functional, cell-based; conditions: dose 0.01-1 µM
ES-2 [25] = assay: Inhibition of erastin-induced ferroptosis in human ES2 cells assessed as NRF2 protein expression at 0.01 to 1 uM incubated for 8 to 10 hrs by western blot analysis; type: functional, cell-based; conditions: dose 0.01-1 µM, time 8-10 hrs

Compound: COc1ccccc1-c1noc(-c2cccc3nc4ccccc4nc23)n1
EC50 (ES-2 [1]): 13 nM
EC50 (LX-2): 5 nM

Compound: c1ccc2nc3c(-c4nc(-c5ccncc5)no4)cccc3nc2c1
EC50 (ES-2 [1]): 7 nM

Compound: FC(F)(F)Oc1cccc(-c2noc(-c3cccc4nc5ccccc5nc34)n2)c1
EC50 (ES-2 [1]): 6 nM
EC50 (LX-2): 14 nM

Compound: FC(F)(F)c1ccc(-c2noc(-c3cccc4nc5ccccc5nc34)n2)cc1
EC50 (ES-2 [1]): 3 nM
EC50 (LX-2): 32 nM

Compound: CN(C)c1cccc(-c2noc(-c3cccc4nc5ccccc5nc34)n2)c1
EC50 (ES-2 [1]): 1 nM
EC50 (LX-2): 2 nM

Activity [14]: inactive
Compound: c1cc(CN2CCCCC2)cc(-c2noc(-c3cccc4nc5ccccc5nc34)n2)c1
Activity (ES2): inactive
inhibition (ES-2 [2]): Dose-dependent-effect
inhibition (ES-2 [3]): inactive
Ratio EC50 [4]: 1000
inhibition (THP-1): inactive
inhibition (ES-2 [5]): Active
Activity (Mus musculus [6]): Active
inhibition (ES-2 [7]): Active
inhibition (ES-2 [8]): inactive
EC50 (ES-2 [1]): 0.712 nM
Activity (Mus musculus [9]): Active
inhibition (ES-2 [10]): inactive
inhibition (ES-2 [11]): inactive
inhibition (ES-2 [12]): inactive
inhibition (ES-2 [13]): inactive
EC50 (LX-2): 0.925 nM
Activity (Mus musculus [15]): Active
inhibition (ES-2 [16]): inactive
Activity (Mus musculus [17]): Active
inhibition (ES-2 [18]): Dose-dependent-effect
inhibition (HT-29): inactive
inhibition (ES-2 [19]): inactive
inhibition (ES-2 [20]): Active
inhibition (ES-2 [21]): Active
Activity [22]: inactive
inhibition (ES-2 [23]): inactive
inhibition (ES-2 [24]): Active
inhibition (ES-2 [25]): inactive

Compound: Cc1cccc(-c2noc(-c3cccc4nc5ccccc5nc34)n2)c1
EC50 (ES-2 [1]): 7 nM
EC50 (LX-2): 4 nM

Compound: c1ccc2nc3ccccc3nc2c1 [PHENAZINE]
EC50 (ES-2 [1]): 2820 nM

Compound: Cc1ccc(-c2noc(-c3cccc4nc5ccccc5nc34)n2)cc1
EC50 (ES-2 [1]): 130 nM
EC50 (LX-2): 2 nM

Compound: Cc1ccccc1-c1noc(-c2cccc3nc4ccccc4nc23)n1
EC50 (ES-2 [1]): 13 nM
EC50 (LX-2): 10 nM

Compound: CC(C)(C)c1noc(-c2cccc3nc4ccccc4nc23)n1
EC50 (ES-2 [1]): 604 nM

Compound: c1ccc2nc3c(-c4nc(-c5nccs5)no4)cccc3nc2c1
EC50 (ES-2 [1]): 6 nM

Compound: CC(C)c1noc(-c2cccc3nc4ccccc4nc23)n1
EC50 (ES-2 [1]): 136 nM

Compound: c1ccc(-c2noc(-c3cccc4nc5ccccc5nc34)n2)nc1
EC50 (ES-2 [1]): 131 nM

Compound: c1ccc2nc3c(-c4nc(C5CC5)no4)cccc3nc2c1
EC50 (ES-2 [1]): 214 nM
